From the NIST ThermoML archive (doi:10.1016/j.fluid.2017.10.027)
Numbers after ± are expanded uncertainties.

Conditions: Liquid; for mass density: Vibrating tube method

## CCCCOCCO [2-butoxyethan-1-ol]
293.15 K, 100 kPa
  mass density: 900 ± 2 kg/m3
293.15 K, 2500 kPa
  mass density: 902 ± 2 kg/m3
293.15 K, 5000 kPa
  mass density: 903 ± 2 kg/m3
293.15 K, 10000 kPa
  mass density: 907 ± 2 kg/m3
293.15 K, 15000 kPa
  mass density: 910 ± 2 kg/m3
293.15 K, 20000 kPa
  mass density: 913 ± 2 kg/m3
293.15 K, 25000 kPa
  mass density: 916 ± 2 kg/m3
293.15 K, 30000 kPa
  mass density: 919 ± 2 kg/m3
298.15 K, 101.33 kPa, Sing-around technique in a fixed-path interferometer
  speed of sound: 1304.7 ± 3.2 m/s
298.15 K, 101.33 kPa
  mass density: 896.17 ± 0.23 kg/m3
303.15 K, 100 kPa
  mass density: 892 ± 2 kg/m3
303.15 K, 2500 kPa
  mass density: 893 ± 2 kg/m3
303.15 K, 5000 kPa
  mass density: 895 ± 2 kg/m3
303.15 K, 10000 kPa
  mass density: 899 ± 2 kg/m3
303.15 K, 15000 kPa
  mass density: 902 ± 2 kg/m3
303.15 K, 20000 kPa
  mass density: 905 ± 2 kg/m3
303.15 K, 25000 kPa
  mass density: 909 ± 2 kg/m3
303.15 K, 30000 kPa
  mass density: 912 ± 2 kg/m3
313.15 K, 100 kPa
  mass density: 883 ± 2 kg/m3
313.15 K, 2500 kPa
  mass density: 885 ± 2 kg/m3
313.15 K, 5000 kPa
  mass density: 887 ± 2 kg/m3
313.15 K, 10000 kPa
  mass density: 889 ± 2 kg/m3
313.15 K, 15000 kPa
  mass density: 894 ± 2 kg/m3
313.15 K, 20000 kPa
  mass density: 898 ± 2 kg/m3
313.15 K, 25000 kPa
  mass density: 901 ± 2 kg/m3
313.15 K, 30000 kPa
  mass density: 904 ± 2 kg/m3
323.15 K, 100 kPa
  mass density: 873 ± 2 kg/m3
323.15 K, 2500 kPa
  mass density: 875 ± 2 kg/m3
323.15 K, 5000 kPa
  mass density: 877 ± 2 kg/m3
323.15 K, 10000 kPa
  mass density: 879 ± 2 kg/m3
323.15 K, 15000 kPa
  mass density: 886 ± 2 kg/m3
323.15 K, 20000 kPa
  mass density: 890 ± 2 kg/m3
323.15 K, 25000 kPa
  mass density: 893 ± 2 kg/m3
323.15 K, 30000 kPa
  mass density: 896 ± 2 kg/m3
333.15 K, 100 kPa
  mass density: 866 ± 2 kg/m3
333.15 K, 2500 kPa
  mass density: 868 ± 2 kg/m3
333.15 K, 5000 kPa
  mass density: 870 ± 2 kg/m3
333.15 K, 10000 kPa
  mass density: 874 ± 2 kg/m3
333.15 K, 15000 kPa
  mass density: 878 ± 2 kg/m3
333.15 K, 20000 kPa
  mass density: 882 ± 2 kg/m3
333.15 K, 25000 kPa
  mass density: 885 ± 2 kg/m3
333.15 K, 30000 kPa
  mass density: 889 ± 2 kg/m3
343.15 K, 100 kPa
  mass density: 857 ± 2 kg/m3
343.15 K, 2500 kPa
  mass density: 860 ± 2 kg/m3
343.15 K, 5000 kPa
  mass density: 862 ± 2 kg/m3
343.15 K, 10000 kPa
  mass density: 866 ± 2 kg/m3
343.15 K, 15000 kPa
  mass density: 870 ± 2 kg/m3
343.15 K, 20000 kPa
  mass density: 874 ± 2 kg/m3
343.15 K, 25000 kPa
  mass density: 877 ± 2 kg/m3
343.15 K, 30000 kPa
  mass density: 881 ± 2 kg/m3
353.15 K, 100 kPa
  mass density: 849 ± 2 kg/m3
353.15 K, 2500 kPa
  mass density: 851 ± 2 kg/m3
353.15 K, 5000 kPa
  mass density: 853 ± 2 kg/m3
353.15 K, 10000 kPa
  mass density: 857 ± 2 kg/m3
353.15 K, 15000 kPa
  mass density: 862 ± 2 kg/m3
353.15 K, 20000 kPa
  mass density: 866 ± 2 kg/m3
353.15 K, 25000 kPa
  mass density: 869 ± 2 kg/m3
353.15 K, 30000 kPa
  mass density: 873 ± 2 kg/m3
363.15 K, 100 kPa
  mass density: 839 ± 2 kg/m3
363.15 K, 2500 kPa
  mass density: 842 ± 2 kg/m3
363.15 K, 5000 kPa
  mass density: 844 ± 2 kg/m3
363.15 K, 10000 kPa
  mass density: 849 ± 2 kg/m3
363.15 K, 15000 kPa
  mass density: 853 ± 2 kg/m3
363.15 K, 20000 kPa
  mass density: 857 ± 2 kg/m3
363.15 K, 25000 kPa
  mass density: 861 ± 2 kg/m3
363.15 K, 30000 kPa
  mass density: 865 ± 2 kg/m3
373.15 K, 100 kPa
  mass density: 830 ± 2 kg/m3
373.15 K, 2500 kPa
  mass density: 833 ± 2 kg/m3
373.15 K, 5000 kPa
  mass density: 835 ± 2 kg/m3
373.15 K, 10000 kPa
  mass density: 840 ± 2 kg/m3
373.15 K, 15000 kPa
  mass density: 845 ± 2 kg/m3
373.15 K, 20000 kPa
  mass density: 849 ± 2 kg/m3
373.15 K, 25000 kPa
  mass density: 853 ± 2 kg/m3
373.15 K, 30000 kPa
  mass density: 857 ± 2 kg/m3
383.15 K, 100 kPa
  mass density: 821 ± 2 kg/m3
383.15 K, 2500 kPa
  mass density: 823 ± 2 kg/m3
383.15 K, 5000 kPa
  mass density: 826 ± 2 kg/m3
383.15 K, 10000 kPa
  mass density: 831 ± 2 kg/m3
383.15 K, 15000 kPa
  mass density: 836 ± 2 kg/m3
383.15 K, 20000 kPa
  mass density: 841 ± 2 kg/m3
383.15 K, 25000 kPa
  mass density: 845 ± 2 kg/m3
383.15 K, 30000 kPa
  mass density: 849 ± 2 kg/m3
393.15 K, 100 kPa
  mass density: 811 ± 2 kg/m3
393.15 K, 2500 kPa
  mass density: 814 ± 2 kg/m3
393.15 K, 5000 kPa
  mass density: 817 ± 2 kg/m3
393.15 K, 10000 kPa
  mass density: 822 ± 2 kg/m3
393.15 K, 15000 kPa
  mass density: 827 ± 2 kg/m3
393.15 K, 20000 kPa
  mass density: 832 ± 2 kg/m3
393.15 K, 25000 kPa
  mass density: 837 ± 2 kg/m3
393.15 K, 30000 kPa
  mass density: 841 ± 2 kg/m3
403.15 K, 100 kPa
  mass density: 801 ± 2 kg/m3
403.15 K, 2500 kPa
  mass density: 804 ± 2 kg/m3
403.15 K, 5000 kPa
  mass density: 807 ± 2 kg/m3
403.15 K, 10000 kPa
  mass density: 813 ± 2 kg/m3
403.15 K, 15000 kPa
  mass density: 819 ± 2 kg/m3
403.15 K, 20000 kPa
  mass density: 824 ± 2 kg/m3
403.15 K, 25000 kPa
  mass density: 829 ± 2 kg/m3
403.15 K, 30000 kPa
  mass density: 833 ± 2 kg/m3
413.15 K, 100 kPa
  mass density: 790 ± 2 kg/m3
413.15 K, 2500 kPa
  mass density: 794 ± 2 kg/m3
413.15 K, 5000 kPa
  mass density: 797 ± 2 kg/m3
413.15 K, 10000 kPa
  mass density: 804 ± 2 kg/m3
413.15 K, 15000 kPa
  mass density: 810 ± 2 kg/m3
413.15 K, 20000 kPa
  mass density: 815 ± 2 kg/m3
413.15 K, 25000 kPa
  mass density: 821 ± 2 kg/m3
413.15 K, 30000 kPa
  mass density: 825 ± 2 kg/m3
